Data from US9637529B2, “Medicament for atrophy treatment or increasing cell growth” (SIMU TRADE CONSULTING GMBH & CO. LEASING KG, priority 2012, dated 2017).
“Also recorded” adds a separate entry of the source.

Key:
[1] = system: mouse satellite cells (MuMa23/P13); assay: AlamarBlue proliferation assay, primary satellite cells; assay type: cell-based; conditions: 24 hrs, SERF2 20 and 4 μg/ml
Experimental: FIG. 4: Effect of SERF2 on Proliferation of mouse satellite cells (MuMa23/P13). Proliferation assay was performed essentially as in FIG. 2. Incubation time was 24 hrs, added SERF2 concentrations were 20 and 4 μg/ml, respectively.
Muscle tissue was taken from male ICR mice and minced by using scissors and a scalpel. Following incubation in protease solution (Sigma, St. Lois) for 1 h at 37° C., remaining tissue clumps were dissociated by vigorousely pipetting and loaded onto a Percoll (Pharmacia) gradient (75%, 50%, 30%). After centrifugation for 20 min at 1250×g, cells were collected from the 2nd interphase (99% satellite cells), washed and cultured at a cell density of 1×10^5 cells/ml in 6-well plates. See also Danoviz ewt al. Methods Mol Biol. 2012; 798: 21-52.
Proliferation was measured using the AlamarBlue™ assay according to the manufacturer's protocol. Briefly, 1×10^4 cells were seeded per well containing 100 μl growth medium. Cells were incubated over night at +37° C., 5% v/v CO^2 and humidified atmosphere. Prior performing the assay, viability of cells was checked under the microscope. Usually cells reached 60% confluence. Cells were washed three times with 100 μl DPBS per well. […] Fluorescence (Ex. 570 nm, Em. 585 nm) was measured using a Varioskan Flash multi-plate reader (Thermo Scientific). Data were evaluated using Microsoft Excel and GraphPad Prism V4.

[2] = system: chorionallantoic membrane (CAM); assay: Hen's Egg Test - Chorionallantoic Membrane (HET-CAM) angiogenesis assay; assay type: in vivo, chicken; conditions: SERF2 3 μg/CAM, VEGF-A 0.5 μg/CAM; treatment on embryonic day 6 and 7; microscopic evaluation, manual count
Experimental: FIG. 12: Proangiogenic effect of SERF2 in CAM assays. To evaluate the pro-angiogenic properties of SERF2, 3 μg of A: PBS and C: SERF2 was applied per CAM. B: VEGF-A (0.5 μg/CAM) was used as positive control, PBS served as a negative control. […] Treatment was performed on embryonic day 6 and 7. Angiogenic responses were evaluated microscopically. Pictures shown were taken for documentation on day 6.
Fertilized specific-pathogen free eggs (White Leghorn) were obtained from BAXTER Biosciences (Vienna, Austria) on embryonic day 5 (E5). Eggs were disinfected on the surface using a towel soaked with Microzid (Schlilke, Austria). A tiny hole was drilled and 3 ml albumen were removed using a syringe equipped with a 18 G needle. Subsequently, the hole was covered with paraffin. To open the eggs, another hole was drilled on top. The egg shell was removed in this area using a pair of tweezers. […] Angiogenic potential of tested peptides was evaluated microscopically at the end of the experiment.
The HET-CAM assay enables the assessment of the angiogenic potential of substrates or cells. A suitable VEGF concentration was determined, which can be used as positive control. […] Angiogenic response was determined on Ell by light microscopy.
To evaluate the pro-angiogenic properties of SERF2, the protein was subjected to Het-CAM assay. […] Angiogenic responses were evaluated microscopically on E7 as well as on E8. […]

[3] = system: zebrafish; assay: Zebrafish heart size / heart volume; assay type: in vivo; conditions: 7 dpf zebrafish incubated with different doses of SERF2
Experimental: FIG. 13: a: Changes in heart size in 7 dpf old zebrafish incubated with different doses of SERF2. b: Changes in heart volume in 7 dpf old zebrafish incubated in different concentrations of SERF2 and erythropoietin (EPO). Significant differences to control animals are indicated by asterisks.
SERF2 was administered by a) injection of the native protein into the yolk sac of 3 day post fertilization (dpf) animals and freshly fertilized eggs (2-8 cell stage) in various protein concentrations or chronic incubation with the native protein to supply it via diffusion. For in deep analysis of angiogenic effects flk-1 transgenic animals with gfp (green fluorescent protein) labelled endothelium were used. For all other experiments wildtype (wdt) animals were used.
Heart size was determined by measurement of end diastolic dimensions and calculation of end diastolic volume as described by Schwerte et al. (Schwerte et al. The Journal of Experimental Biology. 2003; 206 (Pt 8):1299-1307).

## SERF2: Small EDRK-rich factor 2, mature protein of 59 amino acids (SEQ ID NO: 1) (MTRGNQRELARQKNMKKQSDSVKGKRRDDGLSAAARKQRDSEIMQQKQKKANEKKEEPK; homo sapiens)
[1]
  proliferative effect on mouse satellite cells: proliferative effect in a dose-dependent manner
[2]
  angiogenic response (newly formed vessels) in CAM: pro-angiogenic response; also recorded: New vessels were identified
[3]
  change in heart volume: significant increase of the animals heart volume
